In ChEMBL document CHEMBL3046872, “Management of Macrophomina wilt in melons using grafting or fungicide soil application: Pathological, horticultural and economical aspects” (2012):

Legend:
Assay type in all cases: functional
Macrophomina phaseolina [1] = test: (§1) Fungicidal activity against Macrophomina phaseolina in non-grafted Melon plants cv. 6405 plots infested with Macrophomina phaseolina assessed as disease incidence exposed to compound at 250 ml/1000 m2 of commercial product applied as soil drench to crown zone three times during growing season 21 to 49 days after transplanting (reference value: 23%)
Macrophomina phaseolina [2] = test: as §1, with “2” for “three”, “44” for “21”, “56” for “49”, “seeding” for “transplanting”, “45%)” for “23%)”
Macrophomina phaseolina [3] = test: as §1, with “1 time” for “three times”, “44” for “21”, “56” for “49”, “seeding” for “transplanting”, “45%)” for “23%)”
Macrophomina phaseolina [4] = test: Fungicidal activity against Macrophomina phaseolina assessed as mycelial growth inhibition incubated at 27 degC for 5 days; conditions: 120 h
Macrophomina phaseolina [5] = test: Fungicidal activity against Macrophomina phaseolina in non-grafted Melon plants cv. 6405 plots assessed as disease incidence exposed to compound at 200 ml/1000 m2 of commercial product applied as soil drench three times during growing season (reference value: 65%)
Macrophomina phaseolina [6] = test: Fungicidal activity against Macrophomina phaseolina in non-grafted Melon plants cv. 6405 plots assessed as disease incidence exposed to compound at 100 ml/1000 m2 of commercial product applied as soil drench three times during growing season (reference value: 65%)
Macrophomina phaseolina [7] = test: Fungicidal activity against Macrophomina phaseolina in non-grafted Melon plants cv. 6405 plots assessed as disease incidence exposed to compound at 250 ml/1000 m2 of commercial product applied as soil drench three times during growing season (reference value: 65%)
Macrophomina phaseolina [8] = test: as §1, with “40” for “250”
Macrophomina phaseolina [9] = test: as §1, with “40” for “250”, “2” for “three”, “44” for “21”, “56” for “49”, “seeding” for “transplanting”, “45%)” for “23%)”
Macrophomina phaseolina [10] = test: Fungicidal activity against Macrophomina phaseolina in non-grafted Melon plants cv. 6405 plots assessed as disease incidence exposed to compound at 300 ml/1000 m2 of commercial product applied as soil drench three times during growing season (reference value: 65%)
Macrophomina phaseolina [11] = test: Fungicidal activity against Macrophomina phaseolina in non-grafted Melon plants cv. 6405 plots assessed as disease incidence exposed to compound at 350 ml/1000 m2 of commercial product applied as soil drench three times during growing season (reference value: 65%)

CO/C=C(/C(=O)OC)c1ccccc1Oc1cc(Oc2ccccc2C#N)ncn1 [AZOXYSTROBIN]
Activity (Macrophomina phaseolina [1]): 3% | Activity (Macrophomina phaseolina [2]): 5% | Activity (Macrophomina phaseolina [3]): 15% | ED50 (Macrophomina phaseolina [4]): 0.38 mg/kg | Activity (Macrophomina phaseolina [5]): 5%

N#Cc1c(Cl)c(Cl)c(Cl)c(C#N)c1Cl [CHLOROTHALONIL]
ED50 (Macrophomina phaseolina [4]): 0.61 mg/kg

O=C(Cc1ccccc1)N/C(=N\OCC1CC1)c1c(C(F)(F)F)ccc(F)c1F [CYFLUFENAMID]
Activity (Macrophomina phaseolina [6]): 60% | ED50 (Macrophomina phaseolina [4]): < 0.01 mg/kg

O=[N+]([O-])c1cc(C(F)(F)F)c(Cl)c([N+](=O)[O-])c1Nc1ncc(C(F)(F)F)cc1Cl [FLUAZINAM]
ED50 (Macrophomina phaseolina [4]): < 0.01 mg/kg

OC(Cn1cncn1)(c1ccc(F)cc1)c1ccccc1F (configuration not stated) [FLUTRIAFOL]
Activity (Macrophomina phaseolina [7]): 50% | ED50 (Macrophomina phaseolina [4]): 13.1 mg/kg

CC(C)NC(=O)N1CC(=O)N(c2cc(Cl)cc(Cl)c2)C1=O [IPRODIONE]
ED50 (Macrophomina phaseolina [4]): 0.03 mg/kg | Activity (Macrophomina phaseolina [5]): 35%

COCC(=O)N(c1c(C)cccc1C)[C@H](C)C(=O)OC [MEFENOXAM]
Activity (Macrophomina phaseolina [8]): 10% | Activity (Macrophomina phaseolina [9]): 50% | Activity (Macrophomina phaseolina [10]): 10% | ED50 (Macrophomina phaseolina [4]): > 10 mg/kg

CCCCC(C#N)(Cn1cncn1)c1ccc(Cl)cc1 (configuration not stated) [MYCLOBUTANIL]
ED50 (Macrophomina phaseolina [4]): 0.26 mg/kg | Activity (Macrophomina phaseolina [5]): 45%

CCCN(CCOc1c(Cl)cc(Cl)cc1Cl)C(=O)n1ccnc1 [PROCHLORAZ]
Activity (Macrophomina phaseolina [7]): 35% | ED50 (Macrophomina phaseolina [4]): 0.04 mg/kg

CCCOC(=O)NCCCN(C)C.Cl [PROPAMOCARB HYDROCHLORIDE]
Activity (Macrophomina phaseolina [11]): 30% | ED50 (Macrophomina phaseolina [4]): 0.9 mg/kg

FC(F)C(F)(F)OCC(Cn1cncn1)c1ccc(Cl)cc1Cl (configuration not stated) [TETRACONAZOLE]
Activity (Macrophomina phaseolina [10]): 15% | ED50 (Macrophomina phaseolina [4]): 2.96 mg/kg

O=CNC(N1CCN(C(NC=O)C(Cl)(Cl)Cl)CC1)C(Cl)(Cl)Cl (configuration not stated) [TRIFORINE]
Activity (Macrophomina phaseolina [7]): 25% | ED50 (Macrophomina phaseolina [4]): 1 mg/kg
